In article PMC10804372, “Degradation by Design: New Cyclin K Degraders from Old CDK Inhibitors” (ACS Chemical Biology, 2024):

Assays:
[1] = system: Cyclin K; test: Cyclin K levels by Western blot after single-concentration treatment; format: cell-based, human; conditions: HEK293T cells, 1 μM for 2 h; for cyclin K degradation: Western blot; for Remaining Cyclin K (%): quantified from Western blots, mean ± SD, three independent experiments
Description: (§1) HEK293T human […] kidney cells were cultured in DMEM (Gibco/Life Technologies), containing 25 mM D-glucose, 4 mM L-glutamine, and 1 mM sodium pyruvate, and supplemented with 10% (v/v) FBS and 1% nonessential amino acids (Gibco/Life Technologies). Cells were incubated at 37 °C in a humidified atmosphere with 5% CO2.
(§2) Cells were washed with PBS and lysed (20 mM HEPES pH 7.5, 10% glycerol, 0.4 M KCl, 0.4% Triton X-100, 15 mM EDTA, and 1× protease and phosphatase inhibitors). The insoluble fraction was removed by centrifugation. Protein quantification was performed using a Bradford assay and compared to a BSA calibration curve. Equal amounts of lysates were run on SDS–PAGE 4–12% Bis–Tris Protein Gels (NuPAGE, Thermo Fisher Scientific) and then transferred onto Immobilon-P PVDF Membrane (Millipore, IPVH00010) using a Mini Trans-Blot Cell (Bio-Rad, 1703930). The membranes were blocked with 5% bovine albumin serum (BSA) in Tris-buffered saline with Tween 20 (TBS-T) and incubated with primary antibodies overnight at 4 °C. The membranes were washed three times with TBS-T and incubated with HRP-conjugated secondary antibody (BioRad) for 2 h. Membranes were washed again three times with TBS-T before being developed using Pierce ECL Western Blotting Substrate (Thermo, 32106) and visualized using LI-COR. Antibodies were purchased from Cell Signaling Technology: anti-GAPDH (D4C6R) and anti-DDB1 (D4C8) or Bethyl Laboratories: anti-Cyclin K (A301-939A). The following HRP-linked secondary antibodies were used by dilution in 5% BSA/TBS-T: antirabbit IgG (BioRad, 5213–2504) and antimouse IgG (BioRad, 103005).
(§3) Unedited blots containing the marker lane are available on request. Western blots were quantified using ImageJ. Cyclin K levels were normalized using GAPDH as a loading control. DC50 values were calculated from concentration–response curves using nonlinear regression fit to a 4-parameter curve by GraphPad Prism.

[2] = molecular target: T1, CDK12 (Homo sapiens, UniProt Q9NYV4); test: KINOMEscan binding assay (Eurofins DiscoverX); conditions: for Kd: KINOMEscan
T1 construct: purchased Eurofins DiscoverX (KINOMEscan service)
T1 sequence (Q9NYV4 whole entry): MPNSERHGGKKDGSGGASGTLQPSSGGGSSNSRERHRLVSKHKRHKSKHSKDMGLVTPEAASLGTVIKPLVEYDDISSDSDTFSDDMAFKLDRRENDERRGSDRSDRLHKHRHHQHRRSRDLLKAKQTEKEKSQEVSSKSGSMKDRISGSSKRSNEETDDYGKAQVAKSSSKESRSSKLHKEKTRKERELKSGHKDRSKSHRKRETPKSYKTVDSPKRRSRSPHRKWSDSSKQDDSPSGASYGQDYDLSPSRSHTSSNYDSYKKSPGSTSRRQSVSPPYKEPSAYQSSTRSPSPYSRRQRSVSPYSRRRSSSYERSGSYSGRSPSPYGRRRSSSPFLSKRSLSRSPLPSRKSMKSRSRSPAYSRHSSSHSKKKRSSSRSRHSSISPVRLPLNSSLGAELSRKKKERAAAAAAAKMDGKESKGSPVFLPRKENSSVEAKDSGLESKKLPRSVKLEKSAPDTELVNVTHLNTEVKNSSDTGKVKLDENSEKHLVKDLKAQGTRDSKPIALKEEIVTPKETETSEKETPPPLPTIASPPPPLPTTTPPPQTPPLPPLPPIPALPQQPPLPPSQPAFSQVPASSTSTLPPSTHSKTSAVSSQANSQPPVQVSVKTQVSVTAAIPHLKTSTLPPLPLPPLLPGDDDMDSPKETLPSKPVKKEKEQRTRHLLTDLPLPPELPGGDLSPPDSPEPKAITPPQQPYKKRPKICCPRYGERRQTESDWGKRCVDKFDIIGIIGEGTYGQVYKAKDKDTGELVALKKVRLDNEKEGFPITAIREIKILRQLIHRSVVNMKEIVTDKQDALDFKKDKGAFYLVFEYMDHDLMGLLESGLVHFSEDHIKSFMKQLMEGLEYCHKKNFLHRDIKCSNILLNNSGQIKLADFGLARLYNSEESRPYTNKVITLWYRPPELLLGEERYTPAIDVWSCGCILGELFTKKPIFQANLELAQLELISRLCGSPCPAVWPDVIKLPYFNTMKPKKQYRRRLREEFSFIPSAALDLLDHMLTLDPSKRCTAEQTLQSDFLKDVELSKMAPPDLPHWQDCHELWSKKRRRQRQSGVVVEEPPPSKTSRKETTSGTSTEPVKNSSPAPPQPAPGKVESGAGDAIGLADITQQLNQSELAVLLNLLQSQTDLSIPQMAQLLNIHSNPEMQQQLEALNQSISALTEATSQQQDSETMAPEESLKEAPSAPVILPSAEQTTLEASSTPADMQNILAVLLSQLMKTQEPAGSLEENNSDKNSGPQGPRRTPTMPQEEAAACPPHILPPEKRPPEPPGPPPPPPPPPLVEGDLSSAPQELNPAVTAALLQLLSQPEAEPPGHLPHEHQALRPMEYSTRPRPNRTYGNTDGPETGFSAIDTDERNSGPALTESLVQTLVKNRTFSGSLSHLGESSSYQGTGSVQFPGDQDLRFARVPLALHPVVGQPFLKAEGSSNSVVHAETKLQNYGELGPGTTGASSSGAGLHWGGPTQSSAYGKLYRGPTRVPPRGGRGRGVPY

[3] = system: Cyclin K; test: Cyclin K degradation concentration-response (DC50, DMax) by Western blot; format: cell-based, human; conditions: for DMax (%) / DC50: HEK293T, Western blot quantification, 3 biological repeats; for DC50: read-out: CycK DC50; for fold decrease in degradation ability versus pyridine counterpart: furan analogues vs 1 (CR8), 36, 40
Description: With the aim of comparing the degradation ability of the new analogues, we derived DC50 values by using Western blotting (Table 5). […] This approach has been previously used to improve the potency of BCL6 degraders.[33] We therefore also measured CDK12 affinity using the KINOMEscan binding assay (Table 5).[34]
as §1, §2, §3

SMILES	cyclin K degradation [1]	Remaining Cyclin K (%) [1] [%]	also measured
CC[C@H](CO)Nc1nc(NCc2ccc(-c3cccnc3)cc2)c2ncn(C(C)C)c2n1 [compound 4]	comparable to that of CR8	6 ± 4	–
CC[C@H](CO)Nc1nc(NCc2ccc(N3CCNCC3)cc2)c2ncn(C(C)C)c2n1 [compound 24]	significantly reduced degradation ability	86 ± 20	–
CC[C@H](CO)Nc1nc(NCc2ccc(-c3cc(C#N)ccn3)cc2)c2ncn(C(C)C)c2n1 [compound 17]	able to successfully induce degradation	2 ± 2	–
CC[C@H](CO)Nc1nc(NCc2ccc(-c3ccncc3)cc2)c2ncn(C(C)C)c2n1 [compound 5]	comparable to that of CR8	9 ± 6	–
OCCC1CCCCN1c1cc(NCc2ccc(-c3ccccn3)cc2)n2ncc(Br)c2n1 (centres unmarked) [compound 36]	–	2 ± 1	fold better CDK12 affinity versus CR8/seliciclib-core analogue ([2]; 36 vs 1, 37 vs 21): 100 fold; Kd [2]: 4 nM; improvement in degradation as measured by DC50 versus compound 1 ([3]; 36 vs 1): fivefold; DMax (%) [3]: >95%; DC50 [3]: 10 nM
CC[C@H](CO)Nc1nc(NCc2ccc(C3=CCCCC3)cc2)c2ncn(C(C)C)c2n1 [compound 22]	partial degradation	22 ± 5	–
CC[C@H](CO)Nc1nc(NCc2ccc(-c3ccc(C)cn3)cc2)c2ncn(C(C)C)c2n1 [compound 7]	abrogated degradation further	93 ± 6	–
CC[C@H](CO)Nc1nc(NCc2ccc(-c3cccc(F)n3)cc2)c2ncn(C(C)C)c2n1 [compound 11]	complete degradation	2 ± 3	–
Cc1ccnc(-c2ccc(CNc3cc(N4CCCCC4CCO)nc4c(Br)cnn34)cc2)c1 (centres unmarked) [compound 38]	–	3 ± 4	–
C=Cc1ccc(CNc2nc(N[C@H](CC)CO)nc3c2ncn3C(C)C)cc1 [compound 34]	little to no degradation	63 ± 22	–
CC[C@H](CO)Nc1nc(NCc2ccc(-c3ncccc3F)cc2)c2ncn(C(C)C)c2n1 [compound 18]	able to induce degradation	17 ± 13	–
O=C(NCc1ccccc1)c1n[nH]cc1NC(=O)c1c(Cl)cccc1Cl [compound 44]	–	–	Kd [2]: 5500 nM
CC[C@H](CO)Nc1nc(NCc2ccc(-c3cccc(C)n3)cc2)c2ncn(C(C)C)c2n1 [compound 12]	complete degradation	4 ± 4	Kd [2]: 220 nM; DMax (%) [3]: >95%; DC50 [3]: 106 nM
O=C(NCc1ccc(-c2ccccn2)cc1)c1n[nH]cc1NC(=O)c1c(Cl)cccc1Cl [compound 40]	–	1 ± 1	fold difference (weaker) in CDK12 binding affinity versus compound 36 ([2]; 40 vs 36): 250 fold; Kd [2]: 1000 nM; DMax (%) [3]: >95%; DC50 [3]: 21 nM
CCc1ccc(CNc2nc(N[C@H](CC)CO)nc3c2ncn3C(C)C)cc1 [compound 35]	little to no degradation	90 ± 14	–
O=C(NCc1ccc(-c2ccco2)cc1)c1n[nH]cc1NC(=O)c1c(Cl)cccc1Cl [compound 42]	–	20 ± 14	Kd [2]: 1000 nM; DMax (%) [3]: >95%; DC50 [3]: 168 nM; fold decrease in degradation ability versus pyridine counterpart [3]: 4–8 fold

SMILES	cyclin K degradation [1]	Remaining Cyclin K (%) [1] [%]	also measured
OCCC1CCCCN1c1cc(NCc2ccccc2)n2ncc(Br)c2n1 (centres unmarked) [compound 43]	–	–	Kd [2]: 10 nM
CC[C@H](CO)Nc1nc(NCc2ccc(Br)cc2)c2ncn(C(C)C)c2n1 [compound 33]	little to no degradation	73 ± 29	–
CC[C@H](CO)Nc1nc(NCc2ccc(C)cc2)c2ncn(C(C)C)c2n1 [compound 32]	little to no degradation	89 ± 8	–
CC[C@H](CO)Nc1nc(NCc2ccc(-c3ncccc3C)cc2)c2ncn(C(C)C)c2n1 [compound 19]	reduced degradation ability compared to CR8	37 ± 16	–
CC[C@H](CO)Nc1nc(NCc2ccc(-c3cc(C)ccn3)cc2)c2ncn(C(C)C)c2n1 [compound 14]	–	1 ± 0	–
CC[C@H](CO)Nc1nc(NCc2ccc(-c3ccoc3)cc2)c2ncn(C(C)C)c2n1 [compound 28]	complete degradation	2 ± 2	–
CC[C@H](CO)Nc1nc(NCc2ccc(-c3ccccc3)cc2)c2ncn(C(C)C)c2n1 [compound 3]	comparable to that of CR8	8 ± 7	–
CC[C@H](CO)Nc1nc(NCc2ccc(C3CCCC3)cc2)c2ncn(C(C)C)c2n1 [compound 27]	only partial degradation	31 ± 16	–
CCc1ccnc(-c2ccc(CNc3nc(N[C@H](CC)CO)nc4c3ncn4C(C)C)cc2)c1 [compound 16]	able to successfully induce degradation	6 ± 4	–
CC[C@H](CO)Nc1nc(NCc2ccc(-c3ccc(F)cn3)cc2)c2ncn(C(C)C)c2n1 [compound 6]	reduction in degradation activity	42 ± 8	–
CC[C@H](CO)Nc1nc(NCc2ccc(-c3ccc(C(=O)NC45CC6CC(CC(C6)C4)C5)cn3)cc2)c2ncn(C(C)C)c2n1 [compound 10]	–	94 ± 8	–
CC[C@H](CO)Nc1nc(NCc2ccc(-c3ccc(CC(C)C)cc3)cc2)c2ncn(C(C)C)c2n1 [compound 9]	–	79 ± 22	–
OCCC1CCCCN1c1cc(NCc2ccc(-c3ccco3)cc2)n2ncc(Br)c2n1 (centres unmarked) [compound 39]	–	4 ± 4	Kd [2]: 17 nM; DMax (%) [3]: >95%; DC50 [3]: 72 nM; fold decrease in degradation ability versus pyridine counterpart [3]: 4–8 fold
CC[C@H](CO)Nc1nc(NCc2ccc(C3=CCCC3)cc2)c2ncn(C(C)C)c2n1 [compound 26]	complete cyclin K degradation	5 ± 4	–
CC[C@H](CO)Nc1nc(NCc2ccc(-c3cc(F)ccn3)cc2)c2ncn(C(C)C)c2n1 [compound 13]	–	3 ± 2	–
